According to PubChem BioAssay (NCI):
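A five-concentration, 48-hour dose response in 96-well plates underlies each endpoint, interpolated linearly between surrounding concentrations. TGI marks complete inhibition of growth.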

How the values were obtained:
Test in all cases: NCI tumour cell line growth inhibition, 48 h
[1] = system: A498 renal
[2] = system: EKVX NSCLC
[3] = system: HL-60(TB) leukemia
[4] = system: HOP-62 NSCLC
[5] = system: HOP-92 NSCLC
[6] = system: HT29 colon
[7] = system: IGROV1 ovarian
[8] = system: MALME-3M melanoma
[9] = system: MDA-MB-231 breast
[10] = system: MOLT-4 leukemia
[11] = system: NCI/ADR-RES ovarian
[12] = system: OVCAR-4 ovarian
[13] = system: OVCAR-5 ovarian
[14] = system: PC-3 prostate
[15] = system: RPMI-8226 leukemia
[16] = system: SF-295 CNS
[17] = system: SK-MEL-2 melanoma
[18] = system: SK-MEL-5 melanoma
[19] = system: SNB-19 CNS
[20] = system: U251 CNS

Structure (SMILES)	TGI [1]	TGI [2]	TGI [3]	TGI [4]	TGI [5]	TGI [6]	TGI [7]	TGI [8]	TGI [9]	TGI [10]	TGI [11]	TGI [12]	TGI [13]	TGI [14]	TGI [15]	TGI [16]	TGI [17]	TGI [18]	TGI [19]	TGI [20]
CC[N+](CC)(CCNCC(N)=O)CC(N)=O	> 10 µM	> 10 µM	> 10 µM	> 10 µM	> 10 µM	> 10 µM	> 10 µM	> 10 µM	> 10 µM	> 10 µM	> 10 µM	> 10 µM	> 10 µM	> 10 µM	> 10 µM	> 10 µM	> 10 µM	> 10 µM	> 10 µM	> 10 µM
NS(=O)(=O)c1nn2c(Br)c(-c3ccccc3)nc2s1	31 µM	31.9 µM	36.4 µM	29.5 µM	22.4 µM	8.4 µM	23.3 µM	13.7 µM	15.9 µM	5.67 µM	12.6 µM	24.4 µM	24.3 µM	18.5 µM	15.5 µM	22.6 µM	16.9 µM	6.48 µM	22.8 µM	15.6 µM
CC(C)(C)OC(=O)NCC(O)CNC(=O)OC(C)(C)C	> 100 µM	> 100 µM	> 100 µM	> 100 µM	> 100 µM		> 100 µM	> 100 µM	> 100 µM	> 100 µM	> 100 µM	> 100 µM	> 100 µM	> 100 µM	> 100 µM	> 100 µM		> 100 µM	> 100 µM	> 100 µM
CNn1c(-c2ccccc2)n[nH]c1=O	> 100 µM	> 100 µM	> 100 µM	> 100 µM	> 100 µM	> 100 µM	> 100 µM	> 100 µM	> 100 µM	> 100 µM	> 100 µM	> 100 µM	> 100 µM	> 100 µM	> 100 µM	> 100 µM	> 100 µM	> 100 µM	> 100 µM	> 100 µM
O=[N+]([O-])c1ccccc1S(=O)(=O)c1cc(Cl)cc2c1NCCC2	> 100 µM	> 100 µM	> 100 µM	> 100 µM	> 100 µM	> 100 µM	> 100 µM	74.1 µM	> 100 µM	> 100 µM	> 100 µM	> 100 µM	> 100 µM	> 100 µM	> 100 µM	> 100 µM	> 100 µM	86.1 µM	> 100 µM	
COc1ccc2nc3ccc(OC)cc3c(S(=O)CCCl)c2c1 (centres undefined)	34 µM	25.6 µM	6.86 µM	36.8 µM	10.8 µM	4.39 µM	6.87 µM	3.57 µM	11.8 µM	> 20.7 µM	36.8 µM	16.4 µM	34.5 µM	23.4 µM	4.9 µM	45.2 µM	35.3 µM	28.2 µM	> 59.3 µM	> 52.2 µM
COc1cc(C2c3cc4c(cc3OC(N3CCCC3)C2C)OCO4)cc(OC)c1O (centres undefined)	56.9 µM	> 80.7 µM	> 92.7 µM	56.7 µM	> 78.5 µM	> 87.7 µM	> 100 µM	> 66 µM	> 93.3 µM	> 100 µM	37 µM	> 100 µM	> 100 µM	> 80.6 µM	> 100 µM	22.3 µM	> 85.9 µM	40.5 µM	38.9 µM	42.6 µM
C[N+](C)([O-])CCC=C1c2ccccc2CCc2ccccc21	48.1 µM	59 µM	30.6 µM	34.9 µM	94.4 µM	67.9 µM	33.1 µM	45.4 µM	68 µM	40.7 µM	69.3 µM	97 µM	> 100 µM	86.3 µM	34.5 µM	70 µM	36.8 µM	34.3 µM	> 100 µM	33.8 µM
CC(=O)OCc1cc(CCC(=O)NCCNc2c3ccccc3nc3ccccc23)cc(COC(C)=O)c1O[Si](C)(C)C(C)(C)C	6.1 µM	36.1 µM	6.2 µM	32.5 µM	22.7 µM	7.38 µM	27.6 µM	25.6 µM	11.6 µM	5.25 µM	45.9 µM	21.1 µM	29.1 µM	29.3 µM	5.77 µM	11.7 µM	23.8 µM		31.2 µM	19.7 µM
COc1ccc(CC2c3cc(Oc4cc(CC5c6cc(OC)c(OC)cc6CCN5C)ccc4O)c(OC)cc3CCN2C)cc1 (centres undefined)	14.8 µM	15.9 µM	15.5 µM	14.9 µM	14.6 µM	8.15 µM	16.2 µM	17.6 µM	14.8 µM	12.9 µM	14.4 µM	8.77 µM	16.6 µM	11.4 µM	10.1 µM	15.4 µM	15.6 µM	14.4 µM	12.5 µM	11.9 µM
CN1C(=O)N/C(=C\c2ccc(S(=O)(=O)NN)cc2)C1=O	> 100 µM	> 100 µM	> 100 µM	> 100 µM	> 100 µM	> 100 µM	> 100 µM	> 100 µM	> 100 µM	> 100 µM	> 100 µM	> 100 µM	> 100 µM	> 100 µM	> 100 µM	> 100 µM	> 100 µM	> 100 µM	> 100 µM	> 100 µM
Cc1ccc(S(=O)(=O)N/N=C/C(=C/c2ccc(Cl)cc2)CC(/C=N/NS(=O)(=O)c2ccc(C)cc2)=C\c2ccc(Cl)cc2)cc1	29 µM	38.4 µM	8.15 µM	70.8 µM	12.4 µM	24.1 µM	35.7 µM	22 µM	24.8 µM	6.62 µM	94.3 µM	24.8 µM	35.5 µM	24 µM	9.11 µM	55 µM	24.9 µM	13.9 µM	> 100 µM	17.2 µM
CC1=C(C#N)C(C#N)(C#N)C(NN(C)C)C1 (centres undefined)	43 µM	86.3 µM	> 100 µM	30.4 µM	30.8 µM	38.3 µM	40.9 µM	98.2 µM	28.4 µM	79.5 µM	> 100 µM	> 100 µM	47.4 µM	46.6 µM	35.9 µM	79.1 µM	39.5 µM	17.5 µM		> 100 µM
O=C(CCCn1ccnc1[N+](=O)[O-])NCCn1cncc1[N+](=O)[O-]	> 100 µM	> 100 µM	> 100 µM	> 100 µM	> 100 µM	> 100 µM	> 100 µM	> 100 µM	> 100 µM	> 100 µM	> 100 µM	> 100 µM	> 100 µM	> 100 µM	> 100 µM	> 100 µM	> 100 µM	> 100 µM		> 100 µM
O=C(NCCCCCCNC(=O)c1cccc2ccccc12)Nc1cccc2ccccc12	> 100 µM	> 100 µM	> 100 µM	> 100 µM	> 100 µM	> 100 µM	> 100 µM	> 100 µM	> 100 µM	> 100 µM	> 100 µM	> 100 µM	> 100 µM	> 100 µM	> 100 µM	> 100 µM	> 100 µM	> 100 µM	> 100 µM	> 100 µM
CCc1nc(N)nc(N)c1-c1ccc(Cl)c(Cl)c1	> 100 µM	> 100 µM	> 100 µM	> 100 µM	> 100 µM	> 100 µM	> 100 µM	> 100 µM	> 100 µM		> 100 µM	> 100 µM	> 100 µM	> 100 µM	> 100 µM	> 100 µM	> 100 µM	> 100 µM	> 100 µM	> 100 µM
CC1(CCCO)CCCCCC(C)(CCCO)C1=O (centres undefined)	> 100 µM	> 100 µM	> 100 µM	> 100 µM	> 100 µM	> 100 µM	> 100 µM	> 100 µM	> 100 µM	> 100 µM	> 100 µM	> 100 µM	> 100 µM	> 100 µM	> 100 µM	> 100 µM	> 100 µM	> 100 µM	> 100 µM	> 100 µM
CCN(CC)c1c(N(CC)CC)c(=O)c1=O	58.1 µM	28.6 µM	7.58 µM	> 77.3 µM	11.4 µM	5.96 µM	8.01 µM	13.2 µM	15.8 µM	16.4 µM	61.2 µM	46.3 µM	37.2 µM	46.4 µM	4.91 µM	> 100 µM	66.9 µM	35.2 µM	> 89.6 µM	55.6 µM
Nc1nc(N)c2[nH]c(CNc3ccc(C(=O)O)cc3)nc2n1	> 100 µM	> 100 µM	> 100 µM	> 100 µM	> 100 µM	> 100 µM	> 100 µM	> 100 µM	> 100 µM	> 100 µM	> 100 µM	> 100 µM	> 100 µM	> 100 µM	> 100 µM	> 100 µM	> 100 µM	> 100 µM	> 100 µM	> 100 µM
O=C(CC(=O)Nc1cccc(C(=O)O)c1)Nc1cccc(C(=O)O)c1	> 100 µM	> 100 µM	> 100 µM	> 100 µM	> 100 µM	> 100 µM	> 100 µM		> 100 µM	> 100 µM	> 100 µM	> 100 µM		> 100 µM	> 100 µM	> 100 µM	> 100 µM	> 100 µM	> 100 µM	> 100 µM
NC(=O)C(N)Cc1ccc(O)cn1 (centres undefined)	> 100 µM	> 100 µM	> 100 µM	> 100 µM	> 100 µM	> 100 µM	> 100 µM	> 100 µM	> 100 µM	> 100 µM	> 100 µM	> 100 µM	> 100 µM	> 100 µM	> 100 µM	> 100 µM		> 100 µM	> 100 µM	> 100 µM
O=Cc1ccc2c(c1)CC1(C2)Cc2ccc3c(c2C1)CCC3 (centres undefined)	> 61 µM	> 59.2 µM	> 26.9 µM	27.7 µM	> 48.3 µM	36.8 µM	41.3 µM	21.8 µM	14.2 µM	31.9 µM	27.8 µM	16.9 µM	> 69.2 µM	18.2 µM	27.9 µM	19.5 µM	14 µM	15.9 µM	21 µM	22.7 µM
O=c1[nH]c(-c2ccc3ccccc3c2)nc2ccccc12	> 100 µM	> 100 µM	> 100 µM	50.2 µM	> 100 µM	> 100 µM	> 100 µM	> 100 µM	> 100 µM	> 100 µM	> 100 µM	9.73 µM	> 100 µM	> 100 µM	> 100 µM	> 100 µM	> 100 µM	> 100 µM	51.4 µM	> 100 µM
CC(=O)OCCn1cnc2nc(Nc3ccccc3)nc(Cl)c21	> 100 µM	> 100 µM	> 100 µM	> 100 µM	34.4 µM	> 100 µM	> 100 µM	> 100 µM	> 100 µM	> 100 µM	> 100 µM	> 100 µM	> 100 µM	> 100 µM	> 100 µM	> 100 µM		> 100 µM	> 100 µM	> 100 µM
